# Test results published in ChEMBL document CHEMBL3585340, “Potent Apoptotic Response Induced by Chloroacetamidine Anthrathiophenediones in Bladder Cancer Cells” (J Med Chem, 2015).
# Calls of active or inactive are those of the source. The calls are words filed in the database; no cut-off is given here.
# Columns and labels:
# [1] = Cellular uptake in cytoplasm of human T24 cells at 5 uM after 4 hrs by confocal microscopic analysis; format: ADME, cell-based; details: t-24, 4 h
# [2] = Binding affinity to 5' FAM/3' TAMRA labeled HRAS2 G-quadruplex DNA (unknown origin) assessed as change in melting temperature by FRET analysis
# [3] = Binding affinity to 5' FAM/3' TAMRA labeled HRAS1 G-quadruplex DNA (unknown origin) assessed as change in melting temperature by FRET analysis
# HEK293 = assay: Cytotoxicity against HEK293 cells harboring wild type HRAS assessed as reduction of metabolic activity after 72 hrs by resazurin assay; format: cell-based; details: Homo sapiens, HEK293, 72 h
# [4] = Cellular uptake in nucleus of human T24 cells at 5 uM after 4 hrs by confocal microscopic analysis; format: ADME, cell-based; details: t-24, 4 h
# [5] = Binding affinity to 5' FAM/3' TAMRA labeled HRAS2 G-quadruplex DNA (unknown origin) by FRET analysis
# [6] = Binding affinity to 5' FAM/3' TAMRA labeled HRAS1 G-quadruplex DNA (unknown origin) by FRET analysis
# [7] = Cellular uptake in human T24 cells at 5 uM at 4 degC after 4 hrs by FACS analysis; format: ADME, cell-based; details: t-24, 4 h
# [8] = Cellular uptake in human T24 cells at 5 uM at 37 degC after 4 hrs by FACS analysis; format: ADME, cell-based; details: t-24, 4 h
# [9] = Cytotoxicity against human T24 cells harboring HRAS mutant assessed as reduction of metabolic activity after 72 hrs by resazurin assay; format: functional, cell-based; details: T-24, 72 h
# [10] = Cellular uptake in human T24 cells at 5 uM after 4 hrs by FACS analysis relative to HEK293 cells; format: ADME, cell-based; details: hek293, 4 h
# [11] = Cellular uptake in human T24 cells at 1 to 5 uM after 4 hrs by FACS analysis; format: ADME, cell-based; details: t-24, 4 h
# T-24 [12] = assay: Inhibition of HRAS mRNA expression in human T24 cells at 5 uM after 6 to 24 hrs by RT-qPCR analysis; format: functional, cell-based
# T-24 [13] = assay: Induction of apoptosis in human T24 cells assessed as PARP-1 cleavage at 2.5 uM measured at 48 hrs by Western blot analysis relative to control; format: functional
# T-24 [14] = assay: Cytotoxicity against human T24 cells assessed as reduction of colony formation at 1 uM after 7 days by methylene blue staining-based assay; format: functional, cell-based
# [15] = Cell cycle arrest in human T24 cells assessed as accumulation at G2 phase at 5 uM after 48 to 72 hrs by propidium iodide staining-based FACS analysis; format: functional; details: T-24
# T-24 [16] = assay: Induction of apoptosis in human T24 cells at 2.5 uM after 24 hrs by annexin V-FITC/propidium iodide staining-based FACS analysis (13 +/- 5%); format: functional
# [17] = Downregulation of p21RAS protein level in human T24 cells at 5 uM after 48 hrs by Western blot analysis; format: functional, cell-based; details: T-24
# [18] = Cell cycle arrest in human T24 cells assessed as accumulation at G1 phase at 5 uM after 48 hrs by propidium iodide staining-based FACS analysis (reference value: 52.4%); format: functional; details: T-24
# T-24 [19] = assay: Induction of apoptosis in human T24 cells assessed as activation of caspase 3/7 at 2.5 to 5 uM measured after 18 to 24 hrs by Apo-ONE assay relative to control; format: functional
# [20] = Downregulation of p21RAS protein level in human T24 cells assessed as remaining protein level at 5 uM after 48 hrs by Western blot analysis relative to beta-actin protein expression; format: functional, cell-based; details: T-24
# T-24 [21] = assay: Induction of reactive oxygen species generation in human T24 cells at 1 to 5 uM after 24 hrs relative to control; format: functional, cell-based
# [22] = Cell cycle arrest in human T24 cells assessed as accumulation at G2 phase at 5 uM after 48 hrs by propidium iodide staining-based FACS analysis (reference value: 18.5%); format: functional; details: T-24
# [23] = Binding affinity to 5' FAM/3' TAMRA labeled HRAS2 G-quadruplex DNA (unknown origin) assessed as change in melting temperature at 5 equiv of compound (r = 5) by FRET analysis (reference value: 68.1 degreeC)
# [24] = Downregulation of cyclin D1 level in human T24 cells assessed as remaining protein level at 2.5 uM after 48 hrs by Western blot analysis; format: functional, cell-based; details: T-24
# [25] = Cellular uptake in human T24 cells at 5 uM after 4 hrs by FACS analysis in presence of dynasore; format: ADME, cell-based; details: t-24, 4 h
# T-24 [26] = assay: Inhibition of HRAS mRNA expression in human T24 cells assessed as remaining mRNA level at 5 uM after 24 hrs by RT-qPCR analysis relative to beta2-microglobulin mRNA expression; format: functional
# T-24 [27] = assay: Inhibition of HRAS mRNA expression in human T24 cells assessed as remaining mRNA level at 5 uM after 6 hrs by RT-qPCR analysis relative to beta2-microglobulin mRNA expression; format: functional
# [28] = Cell cycle arrest in human T24 cells assessed as accumulation at G2 phase at 5 uM measured at 72 hrs by propidium iodide staining-based FACS analysis (reference value: 17.7%); format: functional; details: T-24
# [29] = Binding affinity to 5' FAM/3' TAMRA labeled HRAS2 G-quadruplex DNA (unknown origin) assessed as change in melting temperature at 5 equiv of compound by FRET analysis in presence of 10 fold excess duplex DNA (reference value: 68.1 degreeC)
# T-24 [30] = assay: Binding affinity to wild type HRAS G-quadruplex DNA (unknown origin) transfected in human T24 cells assessed as remaining expression ratio of firefly luciferase to renila luciferase reporter gene at 100 to 200 nM pretreated with cells followed by transfection measured after 48 hrs; format: cell-based
# T-24 [31] = assay: Binding affinity to mutant HRAS Mut-B plasmid (unknown origin) transfected in human T24 cells at 100 to 200 nM pretreated with cells followed by transfection measured after 48 hrs by dual luciferase reporter gene assay; format: cell-based
# [32] = Downregulation of p21RAS protein level in human T24 cells assessed as remaining protein level at 2.5 to 5 uM after 48 hrs by Western blot analysis relative to beta-actin protein expression; format: functional, cell-based; details: T-24
# T-24 [33] = assay: Binding affinity to mutant HRAS Mut-A plasmid (unknown origin) transfected in human T24 cells at 100 to 200 nM pretreated with cells followed by transfection measured after 48 hrs by dual luciferase reporter gene assay; format: cell-based
# T-24 [34] = assay: Antitumor activity against human T24 cells xenografted in nude mouse assessed as tumor growth inhibition at 1.7 mg/kg administered intratumorally on day 1, 8, 15, 22 measured every 2 to 3 days up to 44 days; format: functional, organism-based
# [35] = Antitumor activity against human T24 cells xenografted in nude mouse assessed as mouse median survival day at 1.7 mg/kg administered intratumorally on day 1, 8, 15, 22 (reference value: 32 days); format: functional, T-24
# [36] = Antitumor activity against human T24 cells xenografted in nude mouse assessed as increase in mouse median survival day at 1.7 mg/kg administered intratumorally on day 1, 8, 15, 22 relative to control; format: functional, T-24
# [37] = Binding affinity to 5' FAM/3' TAMRA labeled HRAS2 G-quadruplex DNA (unknown origin) assessed as change in melting temperature at 10 equiv of compound by FRET analysis (reference value: 67.2 degreeC)
SMILES,Drug uptake [1],ΔTm [2] [°C],ΔTm [3] [°C],IC50 (HEK293) [nM],Drug uptake [4],Kd [5] [nM],Kd [6] [nM],Drug uptake [7],Drug uptake [8],IC50 [9] [nM],fold change (FC) [10],Drug uptake [11],Activity (T-24 [13]),Activity (T-24 [14]),Activity (T-24 [16]) [%],further results
N=C(CCl)NCCCNc1c2c(c(NCCNC(=N)CCl)c3ccsc13)C(=O)c1ccccc1C2=O,Active,7,9,10100,Active,221,179,Not Active,Active,2900,2,Active,,,,
N=C(N)NCCCCNc1c2c(c(NCCCCNC(=N)N)c3sccc13)C(=O)c1ccccc1C2=O,,,,> 30000,,,,,,,,Active,inactive,inactive,13,inhibition (T-24 [12]): inactive; Activity [15]: inactive; Activity [17]: Active
N=C(CCl)NCCCNc1c2c(c(NCCNC(=N)CCl)c3sccc13)C(=O)c1ccccc1C2=O,Active,7,9,12600,Active,168,178,Not Active,Active,3000,2,Active,80%,Active,81,Activity [18]: 28.9%; fold change (FC) (T-24 [19]): 15; Activity [20]: 40%; Activity (T-24 [21]): inactive; Activity [22]: 66%; Tm [23]: 75.8 °C; Activity [24]: < 10%; Drug uptake [25]: Not Active; Activity (T-24 [26]): 24%; Activity (T-24 [27]): 45%; Activity [28]: 83%; Tm [29]: 75.8 °C
N=C(CCl)NCCNc1c2c(c(NCCNC(=N)CCl)c3sccc13)C(=O)c1ccccc1C2=O,Active,7,9,6400,Active,317,611,Not Active,Active,2700,2,Active,80%,Active,88,Activity (T-24 [30]): 40%; Activity [18]: 12.2%; Activity (T-24 [31]): inactive; Activity [32]: < 4%; Activity (T-24 [33]): inactive; TGI (T-24 [34]): Active; MSD [35]: 54 days; Activity [36]: 70%; fold change (FC) (T-24 [19]): 15; Activity (T-24 [21]): inactive; Activity [22]: 72.2%; Tm [23]: 75.6 °C; Activity [24]: < 10%; Drug uptake [25]: Not Active; Tm [37]: 78.5 °C; Activity (T-24 [26]): 34%; Activity (T-24 [27]): 35%; Activity [28]: 44.7%; Tm [29]: 75.6 °C
N=C(CCl)NCCCCNc1c2c(c(NCCCCNC(=N)CCl)c3sccc13)C(=O)c1ccccc1C2=O,Active,7,9,> 30000,Active,215,231,,,11500,2,Active,,,,
N=C(CCl)NCCCNc1c2c(c(NCCCNC(=N)CCl)c3sccc13)C(=O)c1ccccc1C2=O,Active,7,9,19400,Active,276,260,,,6800,2,Active,,,,
N=C(N)NCCNc1c2c(c(NCCNC(=N)N)c3sccc13)C(=O)c1ccccc1C2=O,,,,> 30000,,,,,,4400,,Active,inactive,inactive,13,inhibition (T-24 [12]): inactive; Activity [15]: inactive; Activity (T-24 [19]): inactive; Activity [17]: Active
